Results: PMC7326067, “The Critical Role of Tryptophan in the Antimicrobial Activity and Cell Toxicity of the Duck Antimicrobial Peptide DCATH” (Frontiers in Microbiology, 2020)
Where no end group is shown, it is not given here.

Experiments:
all tested bacteria = experiment: MIC over all tested bacteria (geometric mean); format: cell-based; conditions: calculated on the MIC values against all tested bacteria (7 strains)
Description: (§1) Three types of Gram-positive bacteria (Staphylococcus epidermidis ATCC 12228, Staphylococcus aureus 29213 and Enterococcus faecalis ATCC 29212) and four types of Gram-negative bacteria (Escherichia coli UB1005, Escherichia coli ATCC 25922, Salmonella typhimurium ATCC 14028 and Salmonella pullorum C79–13) preserved in our lab were cultured in the medium of Muller-Hinton broth (MHB) medium (1.75% casamino acid, 0.2% beef extract, 0.15% soluble starch, pH 7.0). The murine macrophage cell line RAW 264.7 cells were procured from the American Type Culture Collection (Manassas, VA, United States) and cultured in DMEM containing 10% fetal bovine serum […], penicillin (100 units/ml) and streptomycin (100 units/ml) in 5% CO2 at 37°C.
(§2) The antimicrobial activity of peptides was examined against representative strains of Gram-positive bacteria (S. aureus ATCC 29213, S. epidermidis ATCC 12228 and E. faecalis ATCC 29212) and Gram-negative bacteria (E. coli ATCC 25922, E. coli UB1005, S. pullorum C79–13, and S. typhimurium ATCC 14028) which were cultured in MHB medium. Antimicrobial activity assay was performed according to a modified version of broth microdilution method ([Gao et al., 2015]). When grown to an OD600 of 0.4, the bacterial stains cultured in MHB were diluted to a final concentration of about 1 × 10^5 CFU/ml. Fifty microliter of microbial solution and 50 μl of two-fold diluted concentrations of peptides [0.2% (w/v) bovine serum albumin, 0.01% (v/v) acetic acid] were mixed in the sterile 96-well plate and cultured at 37°C for 24 h. MICs were identified as the lowest peptide concentration that no bacteria growth was observed by OD determination (492 nm). Each experiment was performed in triplicate. The geometric mean (GM) of the MICs of a peptide was calculated on the MIC values of the peptide against all tested bacteria, and was used to evaluate the antimicrobial activity of the peptide. The therapeutic index (TI) was defined as the ratio of the minimum hemolytic concentration (MHC) to the GM and was used to measure the peptide cell selectivity toward the component with negative charge of bacterial cell membranes over the zwitterionic membranes mammalian cells. TI was calculated as the ratio of the HC10 (the peptide concentration needed to reach 10% lysis of hRBCs) value to the GM (TI = HC10/GM).

[1] = test system: S. typhimurium ATCC 14028; format: cell-based, Salmonella typhimurium; conditions: ATCC 14028, 24 h
Description: as §1, §2

[2] = test system: S. epidermidis ATCC 12228; format: cell-based, Staphylococcus epidermidis; conditions: ATCC 12228, 24 h
Description: as §1, §2

E. coli UB1005 = format: cell-based, Escherichia coli; conditions: UB1005, 24 h
Description: as §1, §2

E. coli ATCC 25922 = format: cell-based, Escherichia coli; conditions: ATCC 25922, 24 h
Description: as §1, §2

E. faecalis ATCC 29212 = format: cell-based, Enterococcus faecalis; conditions: ATCC 29212, 24 h
Description: as §1, §2

S. pullorum C79-13 = format: cell-based, Salmonella pullorum; conditions: C79-13, 24 h
Description: as §1, §2

S. aureus ATCC 29213 = format: cell-based, Staphylococcus aureus; conditions: ATCC 29213, 24 h
Description: as §1, §2

[3] = test system: Human red blood cells (hRBCs); format: cell-based; conditions: for MHC (minimum hemolytic concentration): red cells of human, 1 h
Description: The hemolytic activity assay of these peptides was performed according to the method of [Gao et al. (2015)]. Human red blood cells (hRBCs) donated by a healthy adult were collected by centrifugation and washed by phosphate-buffered saline (PBS) solution (pH 7.2). 1% (v/v) suspension of hRBCs in PBS was incubated with different concentrations of peptides dissolved in PBS for 1 h at 37°C. Absorbance in the supernatant was monitored at 405 nm. hRBCs in 0.1% Triton X-100 and PBS were used as positive and negative controls, respectively. The hemolysis percentage was calculated as follows:
%hemolysis=[A-sampleA]blank/[A-TritonA]blank×100.
FIGURE 1 Hemolytic and toxicity activity of the peptides. (A,B) Hemolytic activity against hRBCs. (C,D) Toxicity activity against RAW264.7 cells. Hemolytic activity was evaluated by incubating individual peptides in serial 2-fold dilutions with freshly isolated hRBCs at 37°C for 1 h, followed by measuring the released hemoglobin at 405 nm. For negative and positive controls, hRBCs in PBS and 0.1% Triton X-100 were used, respectively. Toxicity activity of the peptides against RAW264.7 was determined using MTT method. The peptides were incubated with RAW264.7 in a 96-well microtiter plate. After incubation with MTT, the supernatant was discarded and DMSO was added and the optical density (OD) at 570 nm was measured.

[4] = test system: BALB/c mice challenged with lethal dose of LPS; experiment: Protection of mice from LPS-induced lethal infection; format: in vivo; conditions: male BALB/c mice, LPS 20 mg/kg i.p.; PMB 2.5 mg/kg or peptide 10 mg/kg i.p. 1 h after challenge
Description: The 6–8 week-old male BALB/c mice (purchased from Charles River Laboratories, Beijing, China) were used to investigate the protective effect in vivo of peptides on LPS-induced infection. All animals were raised under specific pathogen-free conditions and the protocol was authorized by the Animal Care Committee of Northeast Agricultural University. Mice were divided into four groups (12 mice per group). 1 h after a challenge with a lethal dose of LPS intraperitoneal injection (20 mg/kg⋅body weight), 4 groups of mice were injected intraperitoneally with 0.5 ml PBS, PMB (2.5 mg/kg⋅body weight), dCATH(1–16) or dCATH(5–20) (10 mg/kg⋅body weight). General behavior, onset and course of clinical disease and mortality of mice were observed every 12 h for a period of 7 days.
FIGURE 8 Survival of mice from LPS-induced lethal infection by dCATH(1–16) or dCATH(5–20). Mice were subjected to a lethal dose of LPS, followed by i.p. injection of CATH(1–16) or dCATH(5–20) at 10 mg/kg or an equal volume of PBS as controls (n = 12). Survival was recorded every 12 h over 7 days.

Substance	GM (geometric mean of the MICs) (all tested bacteria)	MIC S. typhimurium ATCC 14028 [1]	MIC S. epidermidis ATCC 12228 [2]	MIC E. coli UB1005 (E. coli UB1005)	MIC E. coli ATCC 25922 (E. coli ATCC 25922)	MIC E. faecalis ATCC 29212 (E. faecalis ATCC 29212)	MIC S. pullorum C79-13 (S. pullorum C79-13)	MIC S. aureus ATCC 29213 (S. aureus ATCC 29213)	hemolytic activity (in words) [3]	MHC (minimum hemolytic concentration) [3]	onset and symptoms of disease (in words) [4]
FWQLVPLAIKIYRAWKRR-NH2 [dCATH(3–20)]	1.81 µM	4 µM	1 µM	2 µM	1 µM	2 µM	2 µM	2 µM	obvious hemolytic activity	4 µM	–
KRFAQLVPLAIKIYRA-NH2 [dCATH(1–16)-4A]	47.55 µM	64 µM	64 µM	32 µM	16 µM	32 µM	64 µM	128 µM	negligible hemolytic activity	–	–
KRFAQLVPLAIKIYRAAKRR-NH2 [dCATH-AA]	39.01 µM	64 µM	64 µM	16 µM	32 µM	32 µM	32 µM	64 µM	negligible hemolytic activity	–	–
KRFWQLVPLAIKIYRA-NH2 [dCATH(1–16)]	4.88 µM	4 µM	8 µM	4 µM	2 µM	8 µM	4 µM	8 µM	–	–	–
KRFWQLVPLAIKIYRAW-NH2 [dCATH(1–17)]	2.21 µM	4 µM	4 µM	1 µM	1 µM	2 µM	4 µM	2 µM	obvious hemolytic activity	8 µM	–
KRFWQLVPLAIKIYRAWK-NH2 [dCATH(1–18)]	1.81 µM	2 µM	2 µM	2 µM	1 µM	2 µM	2 µM	2 µM	obvious hemolytic activity	8 µM	–
KRFWQLVPLAIKIYRAWKRR-NH2 [dCATH]	3.62 µM	8 µM	4 µM	2 µM	2 µM	4 µM	4 µM	4 µM	obvious hemolytic activity	4 µM	–
QLVPLAIKIYRA-NH2 [dCATH(5–16)]	190.21 µM	–	–	128 µM	64 µM	–	–	–	negligible hemolytic activity	–	–
QLVPLAIKIYRAAKRR-NH2 [dCATH(5–20)-17A]	70.66 µM	64 µM	32 µM	–	64 µM	32 µM	–	32 µM	negligible hemolytic activity	–	–
QLVPLAIKIYRAWKRR-NH2 [dCATH(5–20)]	3.28 µM	4 µM	4 µM	4 µM	1 µM	4 µM	8 µM	2 µM	–	128 µM	–
WQLVPLAIKIYRAWKRR-NH2 [dCATH(4–20)]	2.44 µM	2 µM	4 µM	4 µM	1 µM	2 µM	4 µM	2 µM	obvious hemolytic activity	16 µM	–
polymyxin B [PMB]	–	–	–	–	–	–	–	–	–	–	delayed the onset of disease of mice with less severe symptoms
